The target of assay [1] is T1, TYK2-JH2 (aa 575-869, in-house) protein (Homo sapiens, UniProt P29597).
T1 construct: TYK2-JH2 (aa 575-869, in-house) protein; made in house
In words: TYK2-JH2 biochemical assay (HTRF probe displacement). The assay is classed as binding. To be noted: Biochemical assay; read-out: TYK2-JH2 IC50. Summed up: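 Recombinant TYK2-JH2 (0.2 nM) was pre-incubated 0.5 h at room temperature with compounds (10 doses, 5-fold dilution; 500× DMSO stocks from 500 uM) in 20 mM HEPES pH 7.5, 10 mM MgCl2, 0.005% BSA, 2 mM DTT, 0.015% Brij-35. Probe displacement was read by HTRF (ex337, em620/665 nm); IC50 from four-parameter logistic fit.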

The subject of assay [2] is JAK2, TYK2/p-STAT4 (Tyr693) activated by IL-12 in NK-92 cell line. In words: IL-12-JAK2, TYK2/p-STAT4 (Tyr693) inhibition IC50 cellular assay. The assay is classed as cell-based. To be noted: for Selectivity fold (TYK2/JAK2): Cellular assay, pSTAT5/GM-CSF IC50 vs pSTAT4/IL-12 IC50; for IC50: NK92, Cellular assay, read-out: pSTAT4/IL-12 IC50. Summed up:
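NK-92 cells were starved overnight without IL-2 and preincubated 1 h at 37° C with compound (8 doses, 10000–0.61 nM, 4-fold, 0.2% DMSO). They were then stimulated with IL-12 (40 ng/ml final) for 30 min. Lysate p-STAT4 (Tyr693) was read by AlphaLISA SureFire; IC50 from four-parameter logistic fit.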

Assay [3] relates to pSTAT5/GM-CSF. In words: pSTAT5/GM-CSF cellular assay (JAK2 selectivity). The assay is classed as cell-based.

Each structure is given as a SMILES string.

T1 sequence (P29597 575-869): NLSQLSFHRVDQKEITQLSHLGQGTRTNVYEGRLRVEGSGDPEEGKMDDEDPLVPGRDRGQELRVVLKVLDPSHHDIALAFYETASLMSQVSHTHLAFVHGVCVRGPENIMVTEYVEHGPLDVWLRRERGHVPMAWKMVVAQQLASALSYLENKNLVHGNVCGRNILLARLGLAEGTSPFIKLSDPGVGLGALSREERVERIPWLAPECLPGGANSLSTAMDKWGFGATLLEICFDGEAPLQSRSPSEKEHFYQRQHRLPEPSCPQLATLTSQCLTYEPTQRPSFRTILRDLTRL

With `CC(=O)Nc1cc(Nc2cc(OCCO)cc(S(C)(=O)=O)n2)c(-c2ccc(OC3CCOC3)cn2)cn1` (stereo not shown) [Example B22, N-(4′-((4-(2-hydroxyethoxy)-6-(methylsulfonyl)pyridin-2-yl)amino)-5-((tetrahydrofuran-3-yl)oxy)-[2,3′-bipyridin]-6′-yl)acetamide], the IC50 is 0.025 nM in assay [1], 12.6 nM in assay [2] and 2490 nM in assay [3]. Also, the “Selectivity fold (TYK2/JAK2)” value in assay [2] turned out to be 197 fold.

As for `CC(=O)Nc1cc(Nc2cccc(S(C)(=O)=O)n2)c(-c2ccc(OC3CCOC3)cn2)cn1` (stereo not shown) [Example B23, N-(4′-((6-(methylsulfonyl)pyridin-2-yl)amino)-5-((tetrahydrofuran-3-yl)oxy)-[2,3′-bipyridin]-6′-yl)acetamide], the IC50 in assay [1] is 0.04 nM; in assay [2] it was 0.307 nM; in assay [3], 1000 nM. In addition, in assay [2], the “Selectivity fold (TYK2/JAK2)” value came to 3260 fold.

In the case of `CC(=O)Nc1cc(Nc2cc(C)cc(S(C)(=O)=O)n2)c(-c2ccc(N3C[C@@H](C)O[C@@H](C)C3)cn2)cn1` [Example C1, N-(5-(cis-2,6-dimethylmorpholino)-4′-((4-methyl-6-(methylsulfonyl)pyridin-2-yl)amino)-[2,3′-bipyridin]-6′-yl)acetamide], the IC50 in assay [1] was found to be 0.027 nM; in assay [2] it was 0.881 nM; in assay [3], 563 nM. In assay [2], the “Selectivity fold (TYK2/JAK2)” value was 639 fold.

Take `CC(=O)Nc1cc(Nc2cccc(S(C)(=O)=O)n2)c(-c2ccc(N3C[C@@H](C)O[C@@H](C)C3)cn2)cn1` [Example C2, N-(5-((cis)-2,6-dimethylmorpholino)-4′-((6-(methylsulfonyl)pyridin-2-yl)amino)-[2,3′-bipyridin]-6′-yl)acetamide]: the IC50 in assay [1] came to 0.026 nM; in assay [2], 0.312 nM; in assay [3] it was 962 nM. The “Selectivity fold (TYK2/JAK2)” value in assay [2] amounted to 3083 fold.

Take `CC(=O)Nc1cc(Nc2cccc(S(C)(=O)=O)c2)c(-c2ccc(N3C[C@@H](C)O[C@@H](C)C3)cn2)cn1` [Example C3, N-(5-((cis)-2,6-dimethylmorpholino)-4′-((3-(methylsulfonyl)phenyl)amino)-[2,3′-bipyridin]-6′-yl)acetamide]: the IC50 in assay [1] was 0.032 nM; in assay [2], 5.81 nM; in assay [3] it was greater than 10000 nM. Moreover, the “Selectivity fold (TYK2/JAK2)” value in assay [2] is greater than 1721 fold.

As to `CC(=O)Nc1cc(Nc2cc(OC(C)C)cc(S(C)(=O)=O)n2)c(-c2ccc(N3C[C@@H](C)O[C@@H](C)C3)cn2)cn1` [Example C4, N-(5-((cis)-2,6-dimethylmorpholino)-4′-((4-isopropoxy-6-(methylsulfonyl)pyridin-2-yl)amino)-[2,3′-bipyridin]-6′-yl)acetamide], the IC50 in assay [1] is 0.034 nM; in assay [2], 4.35 nM; in assay [3] it was greater than 10000 nM. For the same compound, the “Selectivity fold (TYK2/JAK2)” value in assay [2] was greater than 2298 fold.

`CC(=O)Nc1cc(Nc2cc(OCC3CC3)cc(S(C)(=O)=O)n2)c(-c2ccc(N3C[C@@H](C)O[C@@H](C)C3)cn2)cn1` [Example C5, N-(4′-((4-(cyclopropylmethoxy)-6-(methylsulfonyl)pyridin-2-yl)amino)-5-((cis)-2,6-dimethylmorpholino)-[2,3′-bipyridin]-6′-yl)acetamide]: the figures for the IC50 in assay [1], in assay [2] and in assay [3] were 0.032 nM, 21.9 nM and greater than 10000 nM, respectively. For the same compound, the “Selectivity fold (TYK2/JAK2)” value in assay [2] is reported as greater than 456 fold.

For the compound `CC(=O)Nc1cc(Nc2cc(OCC3CC3)cc(S(C)(=O)=O)c2)c(-c2ccc(N3C[C@@H](C)O[C@@H](C)C3)cn2)cn1` [Example C6, N-(4′-((3-(cyclopropylmethoxy)-5-(methylsulfonyl)phenyl)amino)-5-((cis)-2,6-dimethylmorpholino)-[2,3′-bipyridin]-6′-yl)acetamide], the IC50 is 0.054 nM in assay [1], 26 nM in assay [2] and greater than 10000 nM in assay [3]. The “Selectivity fold (TYK2/JAK2)” value in assay [2] is recorded as greater than 381 fold.

`COc1cc(Nc2cc(NC(C)=O)ncc2-c2ccc(N3C[C@@H](C)O[C@@H](C)C3)cn2)nc(S(C)(=O)=O)c1` [Example C9, N-(5-(cis-2,6-dimethylmorpholino)-4′-((4-methoxy-6-(methylsulfonyl)pyridin-2-yl)amino)-[2,3′-bipyridin]-6′-yl)acetamide]: the IC50 in assay [1] is 0.027 nM; in assay [2], 0.672 nM; in assay [3] it was greater than 10000 nM. For the same compound, in assay [2], the “Selectivity fold (TYK2/JAK2)” value is greater than 14880 fold.

As to `[2H]C([2H])([2H])Oc1cc(Nc2cc(NC(C)=O)ncc2-c2ccc(N3C[C@@H](C)O[C@@H](C)C3)cn2)nc(S(C)(=O)=O)c1` [Example C17, N-(5-((cis)-2,6-dimethylmorpholino)-4′-((4-(methoxy-d3)-6-(methylsulfonyl)pyridin-2-yl)amino)-[2,3′-bipyridin]-6′-yl)acetamide], the figures for the IC50 in assay [1], in assay [2] and in assay [3] were 0.022 nM, 0.605 nM and greater than 10000 nM, respectively. Moreover, the “Selectivity fold (TYK2/JAK2)” value in assay [2] is given as greater than 16528 fold.

Consider `COC(C)c1cc(Nc2cc(NC(C)=O)ncc2-c2ccc(N3C[C@@H](C)O[C@@H](C)C3)cn2)nc(S(C)(=O)=O)c1` (stereo partly drawn) [Example C18, N-(5-(cis-2,6-dimethylmorpholino)-4′-((4-(1-methoxyethyl)-6-(methylsulfonyl)pyridin-2-yl)amino)-[2,3′-bipyridin]-6′-yl)acetamide], for which the IC50 in assay [1] was 0.023 nM; in assay [2] it was 0.639 nM; in assay [3], 4870 nM. Besides, in assay [2], the “Selectivity fold (TYK2/JAK2)” value was found to be 7625 fold.

Take `CC(=O)Nc1cc(Nc2cc(C3CCOCC3)cc(S(C)(=O)=O)n2)c(-c2ccc(N3C[C@@H](C)O[C@@H](C)C3)cn2)cn1` [Example C21, N-(5-(cis-2,6-dimethylmorpholino)-4′-((6-(methylsulfonyl)-4-(tetrahydro-2H-pyran-4-yl)pyridin-2-yl)amino)-[2,3′-bipyridin]-6′-yl)acetamide]: the results for the IC50 in assay [1], in assay [2] and in assay [3] were 0.024 nM, 0.995 nM and greater than 10000 nM, respectively. In addition, in assay [2], the “Selectivity fold (TYK2/JAK2)” value was greater than 10050 fold.

Take `CC(=O)Nc1cc(Nc2cncc(S(C)(=O)=O)n2)c(-c2ccc(N3C[C@@H](C)O[C@@H](C)C3)cn2)cn1` [Example C22, N-(5-(cis-2,6-dimethylmorpholino)-4′-((6-(methylsulfonyl)pyrazin-2-yl)amino)-[2,3′-bipyridin]-6′-yl)acetamide]: the IC50 is 0.023 nM in assay [1], 0.476 nM in assay [2] and greater than 10000 nM in assay [3]. In assay [2], the “Selectivity fold (TYK2/JAK2)” value was greater than 21008 fold.

In the case of `CC(=O)Nc1cc(Nc2cc(N3CCOC[C@@H]3C)cc(S(C)(=O)=O)n2)c(-c2ccc(N3C[C@@H](C)O[C@@H](C)C3)cn2)cn1` [Example C23, N-(5-(cis-2,6-dimethylmorpholino)-4′-((4-((S)-3-methylmorpholino)-6-(methylsulfon-yl)pyridin-2-yl)amino)-[2,3′-bipyridin]-6′-yl)ace-tamide], the IC50 in assay [1] was found to be 0.022 nM; in assay [2], 0.63 nM; in assay [3] it was 2600 nM. In assay [2], the “Selectivity fold (TYK2/JAK2)” value is listed as 4126 fold.

For the compound `COC1CN(c2cc(Nc3cc(NC(C)=O)ncc3-c3ccc(N4C[C@@H](C)O[C@@H](C)C4)cn3)nc(S(C)(=O)=O)c2)C1` [Example C25, N-(5-(cis-2,6-dimethyl-morpholino)-4′-((4-(3-methoxy-azetidin-1-yl)-6-(methylsulfonyl)pyridin-2-yl)amino)-[2,3′-bipyridin]-6′-yl)acetamide], the IC50 in assay [1] was 0.037 nM; in assay [2], 0.827 nM; in assay [3] it was 1060 nM. In assay [2], the “Selectivity fold (TYK2/JAK2)” value came to 1288 fold.

Regarding `COCCOc1ccc(-c2cnc(NC(C)=O)cc2Nc2cccc(S(C)(=O)=O)n2)nc1` [Example D1, N-(5-(2-methoxyethoxy)-4′-((6-(methylsulfonyl)pyridin-2-yl)amino)-[2,3′-bipyridin]-6′-yl)acetamide], the IC50 in assay [1] was 0.047 nM; in assay [2] it was 0.251 nM; in assay [3] it was greater than 10000 nM. Moreover, in assay [2], the “Selectivity fold (TYK2/JAK2)” value is on record as greater than 39840 fold.

Turning to `COCCOc1ccc(-c2cnc(NC(C)=O)cc2Nc2cccc(S(C)(=O)=O)c2)nc1` [Example D2, N-(5-(2-methoxyethoxy)-4′-((3-(methylsulfonyl)phenyl)amino)-[2,3′-bipyridin]-6′-yl)acetamide], the IC50 in assay [1] was 0.038 nM; in assay [2], 15.6 nM; in assay [3], greater than 10000 nM. Further, the “Selectivity fold (TYK2/JAK2)” value in assay [2] is reported as greater than 641 fold.

On to `COCCOc1ccc(-c2cnc(NC(C)=O)cc2Nc2cc(C(F)(F)F)cc(S(C)(=O)=O)c2)nc1` [Example D3, N-(5-(2-methoxyethoxy)-4′-((3-(methylsulfonyl)-5-(trifluoromethyl)phenyl)amino)-[2,3′-bipyridin]-6′-yl)acetamide], for which the IC50 in assay [1] was 0.08 nM; in assay [2], 4.8 nM; in assay [3], greater than 10000 nM. Moreover, the “Selectivity fold (TYK2/JAK2)” value in assay [2] is on record as greater than 2083 fold.

On to `COCCOc1ccc(-c2cnc(NC(C)=O)cc2Nc2cc(C)cc(S(C)(=O)=O)n2)nc1` [Example D4, N-(5-(2-methoxyethoxy)-4′-((4-methyl-6-(methylsulfonyl)pyridin-2-yl)amino)-[2,3′-bipyridin]-6′-yl)acetamide], for which the IC50 in assay [1] is 0.044 nM; in assay [2] it was 0.262 nM; in assay [3], greater than 10000 nM. Besides, in assay [2], the “Selectivity fold (TYK2/JAK2)” value is greater than 38167 fold.

The values are drawn from patent US20240043435A1, “TYK-2 INHIBITOR” (BEIGENE, LTD., priority 2020, published 2024).
